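In this assay, cells in 96-well plates receive the compound at five concentrations for 48 hours. Endpoints are linearly interpolated between the surrounding concentrations. TGI: total growth inhibition.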
What was measured:
Assay in all cases: DTP human tumour cell line panel, 48 h
A549 NSCLC = system: A549 NSCLC
ACHN renal = system: ACHN renal
CCRF-CEM leukemia = system: CCRF-CEM leukemia
DLD-1 colon = system: DLD-1 colon
EKVX NSCLC = system: EKVX NSCLC
HCC-2998 colon = system: HCC-2998 colon
HCT-15 colon = system: HCT-15 colon
HL-60(TB) leukemia = system: HL-60(TB) leukemia
HOP-62 NSCLC = system: HOP-62 NSCLC
HOP-92 NSCLC = system: HOP-92 NSCLC
HT29 colon = system: HT29 colon
IGROV1 ovarian = system: IGROV1 ovarian
K-562 leukemia = system: K-562 leukemia
KM12 colon = system: KM12 colon
KM20L2 colon = system: KM20L2 colon
LOX IMVI melanoma = system: LOX IMVI melanoma
LXFL 529 NSCLC = system: LXFL 529 NSCLC
M14 melanoma = system: M14 melanoma
M19-MEL melanoma = system: M19-MEL melanoma
MALME-3M melanoma = system: MALME-3M melanoma
MOLT-4 leukemia = system: MOLT-4 leukemia
NCI-H23 lung = system: NCI-H23 lung
NCI-H460 lung = system: NCI-H460 lung
NCI-H522 lung = system: NCI-H522 lung
OVCAR-3 ovarian = system: OVCAR-3 ovarian
OVCAR-4 ovarian = system: OVCAR-4 ovarian
OVCAR-5 ovarian = system: OVCAR-5 ovarian
OVCAR-8 ovarian = system: OVCAR-8 ovarian
RXF 393 renal = system: RXF 393 renal
SF-295 CNS = system: SF-295 CNS
SF-539 CNS = system: SF-539 CNS
SK-MEL-2 melanoma = system: SK-MEL-2 melanoma
SK-MEL-28 melanoma = system: SK-MEL-28 melanoma
SK-MEL-5 melanoma = system: SK-MEL-5 melanoma
SK-OV-3 ovarian = system: SK-OV-3 ovarian
SN12C renal = system: SN12C renal
SNB-75 CNS = system: SNB-75 CNS
SNB-78 CNS = system: SNB-78 CNS
SR leukemia = system: SR leukemia
SW-620 colon = system: SW-620 colon
TK-10 renal = system: TK-10 renal
U251 CNS = system: U251 CNS
UACC-257 melanoma = system: UACC-257 melanoma
UACC-62 melanoma = system: UACC-62 melanoma
UO-31 renal = system: UO-31 renal
XF 498 CNS = system: XF 498 CNS
786-0 renal = system: 786-0 renal
A498 renal = system: A498 renal
CAKI-1 renal = system: CAKI-1 renal
COLO 205 colon = system: COLO 205 colon
DMS 114 small cell lung = system: DMS 114 small cell lung
DMS 273 small cell lung = system: DMS 273 small cell lung
HCT-116 colon = system: HCT-116 colon
HOP-18 NSCLC = system: HOP-18 NSCLC
NCI-H226 lung = system: NCI-H226 lung
RPMI-8226 leukemia = system: RPMI-8226 leukemia
SF-268 CNS = system: SF-268 CNS
SNB-19 CNS = system: SNB-19 CNS

SMILES: CC1OC=CC(=O)C1O (configuration not stated)
- TGI (A549 NSCLC): > 100 µM
- TGI (ACHN renal): > 100 µM
- TGI (CCRF-CEM leukemia): > 100 µM
- TGI (DLD-1 colon): > 100 µM
- TGI (EKVX NSCLC): > 100 µM
- TGI (HCC-2998 colon): > 100 µM
- TGI (HCT-15 colon): > 100 µM
- TGI (HL-60(TB) leukemia): > 100 µM
- TGI (HOP-62 NSCLC): > 100 µM
- TGI (HOP-92 NSCLC): > 100 µM
- TGI (HT29 colon): > 100 µM
- TGI (IGROV1 ovarian): > 100 µM
- TGI (K-562 leukemia): > 100 µM
- TGI (KM12 colon): > 100 µM
- TGI (KM20L2 colon): > 100 µM
- TGI (LOX IMVI melanoma): > 100 µM
- TGI (LXFL 529 NSCLC): > 100 µM
- TGI (M14 melanoma): > 100 µM
- TGI (M19-MEL melanoma): > 100 µM
- TGI (MALME-3M melanoma): > 100 µM
- TGI (MOLT-4 leukemia): > 100 µM
- TGI (NCI-H23 lung): > 100 µM
- TGI (NCI-H460 lung): > 100 µM
- TGI (NCI-H522 lung): > 100 µM
- TGI (OVCAR-3 ovarian): > 100 µM
- TGI (OVCAR-4 ovarian): > 100 µM
- TGI (OVCAR-5 ovarian): > 100 µM
- TGI (OVCAR-8 ovarian): > 100 µM
- TGI (RXF 393 renal): > 100 µM
- TGI (SF-295 CNS): > 100 µM
- TGI (SF-539 CNS): > 100 µM
- TGI (SK-MEL-2 melanoma): > 100 µM
- TGI (SK-MEL-28 melanoma): > 100 µM
- TGI (SK-MEL-5 melanoma): > 100 µM
- TGI (SK-OV-3 ovarian): > 100 µM
- TGI (SN12C renal): > 100 µM
- TGI (SNB-75 CNS): > 100 µM
- TGI (SNB-78 CNS): > 100 µM
- TGI (SR leukemia): > 100 µM
- TGI (SW-620 colon): > 100 µM
- TGI (TK-10 renal): > 100 µM
- TGI (U251 CNS): > 100 µM
- TGI (UACC-257 melanoma): > 100 µM
- TGI (UACC-62 melanoma): > 100 µM
- TGI (UO-31 renal): > 100 µM
- TGI (XF 498 CNS): > 100 µM

SMILES: CN/N=C(\C(=O)Nc1ccc([N+](=O)[O-])cc1[N+](=O)[O-])C1NC(=O)NC1=O (configuration not stated)
- TGI (786-0 renal): > 100 µM
- TGI (A498 renal): > 100 µM
- TGI (A549 NSCLC): > 100 µM
- TGI (ACHN renal): > 100 µM
- TGI (CAKI-1 renal): > 100 µM
- TGI (CCRF-CEM leukemia): > 100 µM
- TGI (COLO 205 colon): > 100 µM
- TGI (DLD-1 colon): > 100 µM
- TGI (DMS 114 small cell lung): > 100 µM
- TGI (DMS 273 small cell lung): > 100 µM
- TGI (EKVX NSCLC): > 100 µM
- TGI (HCC-2998 colon): > 100 µM
- TGI (HCT-116 colon): > 100 µM
- TGI (HCT-15 colon): > 100 µM
- TGI (HL-60(TB) leukemia): > 100 µM
- TGI (HOP-18 NSCLC): > 100 µM
- TGI (HOP-62 NSCLC): > 100 µM
- TGI (HOP-92 NSCLC): > 100 µM
- TGI (HT29 colon): > 100 µM
- TGI (IGROV1 ovarian): > 100 µM
- TGI (K-562 leukemia): > 100 µM
- TGI (KM12 colon): > 100 µM
- TGI (KM20L2 colon): > 100 µM
- TGI (LOX IMVI melanoma): > 100 µM
- TGI (LXFL 529 NSCLC): > 100 µM
- TGI (M14 melanoma): > 100 µM
- TGI (M19-MEL melanoma): > 100 µM
- TGI (MALME-3M melanoma): > 100 µM
- TGI (MOLT-4 leukemia): > 100 µM
- TGI (NCI-H226 lung): > 100 µM
- TGI (NCI-H23 lung): > 100 µM
- TGI (NCI-H460 lung): > 100 µM
- TGI (OVCAR-3 ovarian): > 100 µM
- TGI (OVCAR-4 ovarian): > 100 µM
- TGI (OVCAR-5 ovarian): > 100 µM
- TGI (OVCAR-8 ovarian): > 100 µM
- TGI (RPMI-8226 leukemia): > 100 µM
- TGI (RXF 393 renal): > 100 µM
- TGI (SF-268 CNS): > 100 µM
- TGI (SF-295 CNS): > 100 µM
- TGI (SF-539 CNS): > 100 µM
- TGI (SK-MEL-2 melanoma): > 100 µM
- TGI (SK-MEL-28 melanoma): > 100 µM
- TGI (SK-MEL-5 melanoma): > 100 µM
- TGI (SK-OV-3 ovarian): > 100 µM
- TGI (SN12C renal): > 100 µM
- TGI (SNB-19 CNS): > 100 µM
- TGI (SNB-75 CNS): > 100 µM
- TGI (SNB-78 CNS): > 100 µM
- TGI (SR leukemia): > 100 µM
- TGI (SW-620 colon): > 100 µM
- TGI (TK-10 renal): > 100 µM
- TGI (U251 CNS): 96.1 µM
- TGI (UACC-257 melanoma): > 100 µM
- TGI (UACC-62 melanoma): > 100 µM
- TGI (UO-31 renal): > 100 µM

From PubChem BioAssay (NCI)
